Experimental data from patent US9365522B2, “Pyrazole amide derivative” (AMGEN INC., priority 2015, dated 2016).
Values belong to the compound of their own block, whether it stands above or below them.

Molecular target: T1, ligand binding domain of human ROR gamma (Homo sapiens, UniProt P51449)
T1 construct: NM_001001523; expressed in transfected cells; host or cells: HEK293T
T1 sequence (P51449 247-497 isoform P51449-2): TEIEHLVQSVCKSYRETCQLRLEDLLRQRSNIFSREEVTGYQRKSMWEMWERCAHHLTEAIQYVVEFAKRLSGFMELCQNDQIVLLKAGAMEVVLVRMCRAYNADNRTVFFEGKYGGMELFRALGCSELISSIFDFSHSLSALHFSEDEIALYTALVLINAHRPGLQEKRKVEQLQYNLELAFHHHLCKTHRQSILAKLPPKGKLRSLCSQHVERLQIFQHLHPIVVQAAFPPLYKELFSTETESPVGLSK
Assay: ROR gamma reporter gene assay (GAL4-RORγ LBD luciferase, Dual-Glo)
Format: cell-based
Conditions: HEK293T cells transfected with pM-ROR gamma, 8 concentrations 3.5 nM to 10.5 μM, 24 h incubation; read-out: result (pIC50, inhibition of RORγ transcriptional activity) (converted)
Method in brief: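 Inhibition of RORγ-driven transcription was measured in HEK293T cells expressing a GAL4 fusion of the human RORγ LBD (aa 247-497), with renilla luciferase as internal control. Cells in 10% charcoal-stripped serum received compound (3.5 nM–10.5 μM) for 24 h.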

Structure (SMILES): O=C(CN(Cc1cc(F)cc(F)c1)C(=O)c1cnn([C@H]2CC[C@H](C(=O)O)CC2)c1C(F)(F)F)c1c(Cl)cncc1Cl [Example 42, trans-4-(4-((2-(3,5-dichloropyridin-4-yl)-2-oxoethyl)(3,5-difluorobenzyl)carbamoyl)-5-(trifluoromethyl)-1H-pyrazol-1-yl)cyclohexanecarboxylic acid]
- IC50: 44700 pM

Structure (SMILES): CC1(C)[C@@H]2C[C@H](N(CCc3c[nH]c4cccc(Cl)c34)C(=O)c3cnn([C@H]4CC[C@](C)(C(=O)O)CC4)c3C(F)(F)F)C[C@@H]21 [Example 343, trans-4-(4-((2-(4-chloro-1H-indol-3-yl)ethyl)((1R,3r,5S)-6,6-dimethylbicyclo[3.1.0]hexan-3-yl)carbamoyl)-5-(trifluoromethyl)-1H-pyrazol-1-yl)-1-methylcyclohex anecarboxylic acid]
- IC50: 31600 pM

Structure (SMILES): CC(C)c1c(C(=O)N(CC(=O)c2c(Cl)cc(F)cc2Cl)C2CCC(C)(C)CC2)cnn1[C@H]1CC[C@](C)(C(=O)O)CC1 [Example 347, trans-4-(4-((2-(2,6-dichloro-4-fluorophenyl)-2-oxoethyl)-(4,4-dimethylcyclohexyl)carbamoyl)-5-propan-2-ylpyrazol-1-yl)-1-methylcyclohexane-1-carboxylic acid]
- IC50: 871000 pM

Structure (SMILES): CC1(C)CCC(N(CC(=O)c2c(Cl)cncc2Cl)C(=O)c2cnn([C@H]3CC[C@](C)(C(=O)O)CC3)c2C(F)F)CC1 [Example 196, trans-4-(4-((2-(3,5-dichloropyridin-4-yl)-2-oxoethyl)-(4,4-dimethylcyclohexyl)carbamoyl)-5-(difluoromethyl)pyrazol-1-yl)-1-methylcyclohexane-1-carboxylic acid]
- IC50: 3.47e+06 pM

Structure (SMILES): O=C(CN(Cc1cc(F)cc(F)c1)C(=O)c1cnn([C@H]2CC[C@H](C(=O)O)CC2)c1Cl)c1c(Cl)cncc1Cl [Example 135, trans-4-(5-chloro-4-((2-(3,5-dichloropyridin-4-yl)-2-oxoethyl)-((3,5-difluorophenyl)methyl)carbamoyl)pyrazol-1-yl)cyclohexane-1-carboxylic acid]
- IC50: 3.09e+06 pM

Structure (SMILES): O=C(CN(C(=O)c1cnn([C@H]2CC[C@H](C(=O)O)CC2)c1C(F)(F)F)[C@H]1CC[C@H](C(F)(F)F)CC1)c1c(Cl)cncc1Cl [Example 213, trans-4-(4-((2-(3,5-dichloropyridin-4-yl)-2-oxoethyl)-(4-(trifluoromethyl)cyclohexyl)carbamoyl)-5-(trifluoromethyl)pyrazol-1-yl)cyclohexane-1-carboxylic acid]
- IC50: 112000 pM

Structure (SMILES): Cc1cc(Cl)cc(C)c1C(=O)CN(C(=O)c1cnn([C@H]2CC[C@](C)(C(=O)O)CC2)c1C(F)(F)F)C1CCC(C)(C)CC1 [Example 280, trans-4-(4-((2-(4-chloro-2,6-dimethylphenyl)-2-oxoethyl)-(4,4-dimethylcyclohexyl)carbamoyl)-5-(trifluoromethyl)pyrazol-1-yl)-1-methylcyclohexane-1-carboxylic acid]
- IC50: 245000 pM

Structure (SMILES): O=C(CN(C(=O)c1cnn([C@H]2CC[C@H](C(=O)O)CC2)c1C(F)(F)F)C1CCCC1)c1c(Cl)cncc1Cl [Example 185, trans-4-(4-(cyclopentyl-(2-(3,5-dichloropyridin-4-yl)-2-oxoethyl)carbamoyl)-5-(trifluoromethyl)pyrazol-1-yl)cyclohexane-1-carboxylic acid]
- IC50: 1.82e+06 pM

Structure (SMILES): O=C(CN(Cc1cc(F)cc(F)c1)C(=O)c1cnn([C@H]2CC[C@H](C(=O)O)CC2)c1C(F)F)c1c(Cl)cncc1Cl [Example 20, trans-4-(4-((2-(3,5-Dichloropyridin-4-yl)-2-oxoethyl)(3,5-difluorobenzyl)carbamoyl)-5-(difluoromethyl)-1H-pyrazol-1-yl)cyclohexanecarboxylic acid]
- IC50: 70800 pM

Structure (SMILES): COc1ccccc1[C@@H](O)CN(C(=O)c1cnn([C@H]2CC[C@](C)(C(=O)O)CC2)c1C(F)(F)F)[C@H]1C[C@@H]2[C@H](C1)C2(C)C [Example 370, trans-4-(4-(((1R,3r,5S)-6,6-dimethylbicyclo[3.1.0]hexan-3-yl)(2-hydroxy-2-(2-methoxyphenyl)ethyl)carbamoyl)-5-(trifluoromethyl)-1H-pyrazoH-yl)-1-methylcyclohexanecarboxylic acid]
- IC50: 537000 pM

More lines, now with the values ahead:

- IC50: 100000 pM
Structure (SMILES): Cc1cc(Cl)c(C(=O)CN(CC#CC(C)(C)C)C(=O)c2cnn([C@H]3CC[C@](C)(C(=O)O)CC3)c2C(F)(F)F)c(Cl)c1 [Example 206, trans-4-(4-((2-(2,6-dichloro-4-methylphenyl)-2-oxoethyl)-(4,4-dimethylpent-2-ynyl)carbamoyl)-5-(trifluoromethyl)pyrazol-1-yl)-1-methylcyclohexane-1-carboxylic acid]

- IC50: 5.62e+06 pM
Structure (SMILES): CN1CCC(N(CC(=O)c2c(Cl)cc(F)cc2Cl)C(=O)c2cnn([C@H]3CC[C@](C)(C(=O)O)CC3)c2C(F)(F)F)CC1 [Example 295, trans-4-(4-((2-(2,6-dichloro-4-fluorophenyl)-2-oxoethyl)-(1-methylpiperidin-4-yl)carbamoyl)-5-(trifluoromethyl)pyrazol-1-yl)-1-methylcyclohexane-1-carboxylic acid]

- IC50: 1.02e+06 pM
Structure (SMILES): CC1(C)CCC(N(CC(=O)c2c(Cl)cc(F)cc2Cl)C(=O)c2cnn([C@H]3C[C@@H](C(=O)O)C3)c2C(F)(F)F)CC1 [Example 291, cis-3-(4-((2-(2,6-dichloro-4-fluorophenyl)-2-oxoethyl)-(4,4-dimethylcyclohexyl)carbamoyl)-5-(trifluoromethyl)pyrazol-1-yl)cyclobutane-1-carboxylic acid]

- IC50: 1.2e+06 pM
Structure (SMILES): CCC(CC)N(CC(=O)c1c(Cl)cncc1Cl)C(=O)c1cnn([C@H]2CC[C@](C)(C(=O)O)CC2)c1C(F)(F)F [Example 287, trans-4-(4-((2-(3,5-dichloropyridin-4-yl)-2-oxoethyl)-pentan-3-ylcarbamoyl)-5-(trifluoromethyl)pyrazol-1-yl)-1-methylcyclohexane-1-carboxylic acid]

- IC50: 14800 pM
Structure (SMILES): O=C(CN(CC1(C(F)(F)F)CC1)C(=O)c1cnn(C23CCC(C(=O)O)(CC2)CC3)c1C(F)(F)F)c1c(Cl)cncc1Cl [Example 329, 4-(4-((2-(3,5-dichloropyridin-4-yl)-2-oxoethyl)-((1-(trifluoromethyl)cyclopropyl)methyl)carbamoyl)-5-(trifluoromethyl)pyrazol-1-yl)bicyclo[2.2.2]octane-1-carboxylic acid]

- IC50: 4900 pM
Structure (SMILES): CC1(C)[C@@H]2C[C@H](N(CC(=O)c3c(Cl)cc(Cl)cc3Cl)C(=O)c3cnn([C@H]4CC[C@](C)(C(=O)O)CC4)c3C(F)(F)F)C[C@@H]21 [Example 219, trans-4-(4-(((1R,3r,5S)-6,6-dimethyl-3-bicyclo[3.1.0]hexanyl)-(2-oxo-2-(2,4,6-trichlorophenyl)ethyl)carbamoyl)-5-(trifluoromethyl)pyrazol-1-yl)-1-methylcyclohexane-1-carboxylic acid]

- IC50: 16600 pM
Structure (SMILES): CCC(C)(C)CN(CC(=O)c1c(Cl)cc(Cl)cc1Cl)C(=O)c1cnn(C23CCC(C(=O)O)(CC2)CC3)c1C(F)(F)F [Example 308, 4-(4-(2,2-dimethylbutyl-(2-oxo-2-(2,4,6-trichlorophenyl)ethyl)carbamoyl)-5-(trifluoromethyl)pyrazol-1-yl)bicyclo[2.2.2]octane-1-carboxylic acid]
